Laboratory results: patent US20100120810A1, “COMPOUNDS AND METHODS FOR MODULATING RHO GTPASES” (priority 2007, published 2010)
Entries after “also recorded” stand apart in the source; their conditions may differ. Counter-ions that a name gives are not always drawn. Like-named read-outs stand apart in the source and are kept apart here.

Key:
Cdc42 = biological target: T1, Cdc42 (Homo sapiens, UniProt P60953); assay: Nucleotide binding assay: BODIPY-GTP binding to Cdc42; type: biochemical; conditions: for inhibition at 50 µM: read-out: Cdc42 % inhibition of BODIPY-GTP binding; for IC50: dose-response study
T1 construct: GST (N); made in house; host or cells: E. coli BL21 Codon+RIL
Description: (§1) Fluorescence of GTP analog BODIPY-GTP increases when it binds to small G proteins. This property was used to assess ability of compounds to inhibit nucleotide binding to Rac1, Rac1b and Cdc42. 2 μM GST-Rac1 and 6 μg His6-Tiam1-DH/PH were diluted in a buffer containing 20 mM Tris, 50 mM NaCl, and 1 mM MgCl2. This mixture was loaded in a 96-well plate. Fluorescence recording were started (λEx: 485 nm; λEm: 538 nm) using a spectrofluorimeter (Fluoroskan; Thermolab Systems). Assay was initiated by the addition of 2 μM BODIPY-GTP with or without various doses of test compound. Fluorescence values were recorded, and data were processed as follows: background fluorescence (unbound BODIPY-GTP) was retrieved from fluorescence values.
(§2) This assay allows determining whether compounds can inhibit the binding of a fluorescent nucleotide to recombinant small G proteins of interest. The effect of various alkaloid compounds on binding of BODIPY-GTP to Rac1 activated by DH/PH domain of Guanine nucleotide Exchange Factor Tiam1 (Rac1/Tiam1), Rac1b and Cdc42 is described below.

HCT116 cell line = assay: Soft agar assay (anchorage-independent colony formation); type: cell-based; conditions: HCT116, 7 days
Excerpt: Colony formation in soft agar is the most widely used assay to evaluate anchorage-independent growth potential and represents one of the best in vitro assays that correlates strongly with in vivo tumorigenic cell growth potential. Normal cells require adherence and spreading onto a solid substratum in order to remain viable and proliferate. In contrast, cancer cell line HCT116 (ATCC clone number CCL-247) lost this requirement and therefore can form proliferating colonies of cells when suspended in a semisolid agar medium. The assay was performed in 24-well plates, using duplicates wells for each compound concentration. Briefly, a 0.5% Bacto™ Agar (BD Biosciences) bottom layer (prepared in HCT116 complete growth medium supplemented or not with the tested compound) was poured first and allowed to harden (0.3 ml per well). HCT116 were trypsinized to generate a uniform single cell suspension. Five×10^3 cells per well were resuspended in 0.3% agar supplemented with complete growth medium, with or without several compound concentrations to form the top layer (0.3 ml per well). HCT116 were allowed to grow for 7 days in these conditions and then analysed for colonies formation. Analysis was performed from pictures taken under a microscope that are representative from 2 different fields of the well. For each field, 2 different focal plans were taken and were merged using ImageJ software. The number of colonies were scored and colonies' size were measured. IC50 were determined for the number and size of colonies using GraphPad Prism (GraphPad) software. Data are mean values of 2 to 3 independent experiments.

Rac1b = biological target: T2, Rac1b (Homo sapiens, UniProt P63000); assay: Nucleotide binding assay: BODIPY-GTP binding to Rac1b; type: biochemical; conditions: for IC50: dose-response study; for inhibition at 50 µM: read-out: Rac1b % inhibition of BODIPY-GTP binding; for selectivity for Rac1b: versus Rac1 or Cdc42
T2 construct: GST (N); made in house; host or cells: E. coli BL21 Codon+RIL
Description: as §1, §2

[1] = biological target: T3, Rac1 activated by DH/PH domain of Guanine nucleotide Exchange Factor Tiam1 (Rac1/Tiam1) (Homo sapiens, UniProt P63000); assay: Nucleotide binding assay: BODIPY-GTP binding to Rac1 activated by Tiam1 DH/PH; type: biochemical; conditions: for IC50: dose-response study; for inhibition at 50 µM: read-out: Rac1 % inhibition of BODIPY-GTP binding
T3 construct: made in house; host or cells: E. coli BL21 Codon+RIL
Description: as §1, §2

[2] = biological target: T4, HEK293 cells overexpressing human Rac1b (Homo sapiens, UniProt P63000); assay: Rac1b activation assay (G-LISA); type: cell-based
T4 construct: expressed in transfected cells; host or cells: HEK293
Description: Rac1b activation assay: HEK293 cells overexpressing human Rac1b were plated in 100 mm diameter dishes and grown for 5 days in MEM medium supplemented with 10% FBS, L-Glutamine and antibiotics. Cells were then treated with 50 μM of compounds or the solvent for 5 minutes, and the GTP loading of Rac1b was measured using a Rac Activation Assay Kit (Cytoskeleton) according to manufacturer's recommendations. Briefly, this assay uses a 96-well plate coated with RBD domain of Rho-family effector proteins. […] The signal is then developed with OPD reagent.

protein kinase C (PKC) = conditions: cited from earlier work
[3] = Homo sapiens, HCT-116, 168 h, read-out: Soft agar assay IC50, Clone Number
[4] = Homo sapiens, HCT-116, 168 h, read-out: Soft agar assay IC50, Clone Size
[5] = HEK293, read-out: G-LISA % inhibition @ 50 μM
[6] = final concentration of 50 μM, Rac1/Tiam1
[7] = HEK293, 50 μM, 5 minutes, GTP loading of Rac1b, read-out: G-LISA % inhibition @ 50 μM

T1 sequence (P60953 whole entry, species assumed): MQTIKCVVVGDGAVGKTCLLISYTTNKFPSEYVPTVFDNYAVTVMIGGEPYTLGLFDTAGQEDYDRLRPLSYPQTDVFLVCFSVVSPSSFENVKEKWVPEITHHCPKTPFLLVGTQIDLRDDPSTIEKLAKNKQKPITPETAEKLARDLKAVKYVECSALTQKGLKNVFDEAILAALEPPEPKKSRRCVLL

Structure (SMILES)	inhibition at 50 µM (Cdc42; final concentration of 50 μM) [%]	inhibition at 50 µM (Rac1b; final concentration of 50 μM) [%]	inhibition at 50 µM [1, 6] [%]	IC50 (HCT116 cell line; [3]) [µM]	IC50 (HCT116 cell line; [4]) [µM]	other results
Oc1cc2c(cc1O)C1Cc3ccc(O)c(O)c3CN1CC2 (racemic) [Compound 16, (±)-5,8,13,13a-Tetrahydro-6H-isoquino[3,2-a]isoquinolinylium-2,3,9,10-tetraol hydrochloride]				6.4 ± 1.3	6.2 ± 0.4	inhibition at 50 µM (Cdc42): 4 ± 6%
COc1ccc2cc3[n+](cc2c1OC)CCc1cc(O)c(O)cc1-3 [Compound 4, 9,10-dimethoxy-5,6-dihydro-isoquino[3,2-a]isoquinolinylium-2,3-diol chloride]	31 ± 9					IC50 (Rac1b): 23.8 ± 2.9 µM; inhibition at 50 µM (Rac1b): 54 ± 2%; IC50 [1]: 58.6 ± 16.9 µM; inhibition at 50 µM [1]: 39 ± 2%; inhibition at 50 µM [2, 5]: 30 ± 5%
C[n+]1cc2c3c(ccc2c2ccc4cc5c(cc4c21)OCO5)OCO3.O.[Cl-] [Compound 13, 13-methyl-[1,3]benzodioxolo[5,6-c]-1,3-dioxolo[4,5-i]phenanthridinium chloride hydrate, reference compound]				1.9 ± 0.6	1.5 ± 0.2	IC50 (Rac1b): 4.6 ± 0.4 µM; fold more active on Rac1b than on Rac1/Tiam1 (Rac1b; from IC50s): 13 fold; times more active on Rac1b than on Cdc42 (Rac1b; from IC50s): 6 times; inhibition at 50 µM (Rac1b): 100%; selectivity for Rac1b (Rac1b): some significant selectivity for Rac1b; IC50 [1]: 57.8 ± 4.3 µM; inhibition at 50 µM [1]: 45 ± 4%; IC50 (Cdc42): 32.1 ± 0.7 µM; inhibition at 50 µM (Cdc42): 63 ± 2%; activity against PKC (protein kinase C (PKC)): 217 μm; inhibition at 50 µM [2, 5]: 50 ± 3%
COc1ccc2c(c[n+](C)c3c4cc5c(cc4ccc23)OCO5)c1OC.[Cl-] [Compound 14, 1,2-dimethoxy-N-methyl[1,3]benzodioxolo[5,6-c]phenanthridinium chloride, reference compound]	35 ± 10	100	25 ± 6	2.4 ± 0.2	2 ± 0.3	IC50 (Rac1b): 6.7 ± 0.9 µM; selectivity for Rac1b (Rac1b): highly selective for Rac1b; also recorded: some significant selectivity for Rac1b; maximum inhibition on Rac1/Tiam1 ([1]; dose-response study (1-2-5-10-25-50-75-100 μM)): around 25%; activity against PKC (protein kinase C (PKC)): 1 μm; inhibition at 50 µM [2, 7]: 40 ± 10%
COc1cc2cc(-c3cccc(C(C)=O)c3)nc(C)c2cc1OC [Compound 24, 1-(3-(6,7-Dimethoxy-1-methylisoquinolin-3-yl)phenyl)ethanone hydrochloride]	7 ± 2	27 ± 2	18 ± 3			inhibition at 50 µM [2, 7]: 19 ± 5%
COc1cc2cc(-c3ccc(O)c(O)c3)nc(C)c2cc1OC [Compound 26, 4-(6,7-Dimethoxy-1-methylisoquinolin-3-yl)benzene-1,2-diol hydrochloride]	15 ± 1			14.8 ± 3.3	8.5 ± 0.9	
COc1cc2cc(-c3ccc4ccccc4c3)nc(C)c2cc1OC.Cl [Compound 41, 6,7-Dimethoxy-1-methyl-3-(naphthalen-2-yl)isoquinolinylium chloride]				70.7 ± 5.9	44.4 ± 4.5	Cdc42 % inhibition of BODIPY-GTP binding (Cdc42; final concentration of 50 μM, 50 µM): 52 ± 4%
COc1cc2cc(-c3ccc(C)cc3)nc(C)c2cc1OC [Compound 43, 6,7-Dimethoxy-1-methyl-3-p-tolylisoquinolinylium chloride]	15 ± 2	17 ± 2	19 ± 1			
Cc1c2cc(O)c(O)cc2cc(-c2ccc(O)c(O)c2)[n+]1C [Compound 45, 3-(3,4-Dihydroxyphenyl)-6,7-dihydroxy-1,2-dimethylisoquinolinium chloride]	12 ± 1	36 ± 4	22 ± 1			
COc1cc2cc(-c3ccccc3NC(=O)N(C)C)nc(C)c2cc1OC [Compound 46, 3-(2-(6,7-Dimethoxy-1-methylisoquinolin-3-yl)phenyl)-1,1-dimethylurea hydrochloride]	2	9 ± 3	8 ± 3			
COc1cc(-c2cc3cc(OC)c(OC)cc3c(C)n2)ccc1O [Compound 47, 4-(6,7-Dimethoxy-1-methylisoquinolin-3-yl)-2-methoxyphenol hydrochloride]	17 ± 1	18 ± 1	15 ± 3			inhibition at 50 µM [2, 7]: 13 ± 8%
COc1ccc2c(c[n+](C)c3c4cc(O)c(O)cc4ccc23)c1OC [Compound 51, 2,3-Dihydroxy-7,8-dimethoxy-5-methylbenzo[c]phenanthridinium chloride]	38 ± 2			> 50	11.4 ± 1.9	IC50 (Cdc42): 78 ± 3 µM
C[n+]1cc2c(O)c(O)ccc2c2ccc3cc(O)c(O)cc3c21 [Compound 52, 2,3,7,8-Tetrahydroxy-5-methylbenzo[c]phenanthridinium chloride]				9.8 ± 1.3	9.5 ± 0.4	IC50 (Cdc42): 22 ± 2 µM; inhibition at 50 µM (Cdc42): 73 ± 4%
O=c1cc(CN2CCOCC2)occ1OCCCCCSc1ccnc2cc(C(F)(F)F)ccc12 [EHT 1864, reference compound]						IC50 (HCT116 cell line; read-out: Soft agar assay IC50, Clone Number): 57.5 ± 4.5 µM; IC50 (HCT116 cell line; read-out: Soft agar assay IC50, Clone Size): 19.5 ± 2.5 µM

Further lines, with some results ahead:

inhibition at 50 µM (Cdc42; final concentration of 50 μM) [%]	inhibition at 50 µM (Rac1b; final concentration of 50 μM) [%]	inhibition at 50 µM [1, 6] [%]	Structure (SMILES)	IC50 (HCT116 cell line; [3]) [µM]	IC50 (HCT116 cell line; [4]) [µM]	other results
3 ± 5	20 ± 2	13 ± 2	COc1cc2cc(-c3cccc(N)c3)nc(C)c2cc1OC [Compound 28, 3-(6,7-Dimethoxy-1-methylisoquinolin-3-yl)aniline dihydrochloride]			inhibition at 50 µM [2, 7]: 27 ± 4%
4 ± 4	16 ± 2	9 ± 3	COc1cc2cc(-c3cccc(NS(C)(=O)=O)c3)nc(C)c2cc1OC [Compound 30, N-(3-(6,7-Dimethoxy-1-methylisoquinolin-3-yl)phenyl)methanesulfonamide hydrochloride]			inhibition at 50 µM [2, 7]: 12 ± 2%
14 ± 1	17 ± 3	15 ± 3	COc1ccc(-c2cc3cc(OC)c(OC)cc3c(C)n2)cc1 [Compound 40, 6,7-Dimethoxy-3-(4-methoxyphenyl)-1-methylisoquinolinylium chloride]			
11 ± 2	17 ± 3	18 ± 3	COc1cc2cc(-c3ccc(Cl)cc3)nc(C)c2cc1OC [Compound 42, 3-(4-Chlorophenyl)-6,7-dimethoxy-1-methylisoquinolinylium chloride]			
10 ± 1	8 ± 3	10 ± 3	COc1cc2cc(-c3ccccc3)nc(C)c2cc1OC [Compound 44, 6,7-Dimethoxy-1-methyl-3-phenylisoquinolinylium chloride]			
2 ± 6	2 ± 4	1 ± 5	COc1cc2cnc(-c3ccccc3)cc2cc1OC [Compound 49, 6,7-Dimethoxy-3-phenylisoquinolinium chloride]			
10 ± 6	10 ± 5	3 ± 5	COc1cc2cc(-c3ccccc3)[n+](C)cc2cc1OC [Compound 50, 6,7-Dimethoxy-2-methyl-3-phenylisoquinolinium chloride]			
